Data: paper PMC6112128, “Discovery and characterization of the tubercidin biosynthetic pathway from Streptomyces tubercidicus NBRC 13090” (Microbial Cell Factories, 2018)

How the values were obtained:
TubE = target: T1, TubE (Streptomyces tubercidicus, UniProt A0A384YVR8); experiment: HPLC and LC-MS product detection; product NMR; format: biochemical; details: 1 mM CDG, 2 mM PRPP, 5 mM MgCl2, 1 mM DTT, 100 mM PBS pH 7.5, 30 °C, 8 h
T1 construct: gene Stube_10250; full-length, 194 aa, His6-tagged (pET28a NdeI-EcoRI), E. coli Rosetta (DE3)/pLysS
T1 sequence (A0A384YVR8 1-194): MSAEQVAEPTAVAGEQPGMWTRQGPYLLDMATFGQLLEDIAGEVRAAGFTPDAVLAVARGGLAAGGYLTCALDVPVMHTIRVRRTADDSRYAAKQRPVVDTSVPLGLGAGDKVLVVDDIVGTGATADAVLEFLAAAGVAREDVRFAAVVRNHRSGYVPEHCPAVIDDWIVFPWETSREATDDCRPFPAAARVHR

TubD = target: T2, TubD (Streptomyces tubercidicus, UniProt A0A384YXG2); experiment: LC-MS detection of IMP; format: biochemical; details: 1 mM NADPH, 1 mM GMP, 50 mM KCl, 1 mM DTT, 2 mM EDTA, 100 mM Tris-HCl pH 7.5, 30 °C, 4 h
T2 construct: gene Stube_10260; full-length, 385 aa, His6-tagged (pET28a NdeI-EcoRI), E. coli Rosetta (DE3)/pLysS
T2 sequence (A0A384YXG2 1-385): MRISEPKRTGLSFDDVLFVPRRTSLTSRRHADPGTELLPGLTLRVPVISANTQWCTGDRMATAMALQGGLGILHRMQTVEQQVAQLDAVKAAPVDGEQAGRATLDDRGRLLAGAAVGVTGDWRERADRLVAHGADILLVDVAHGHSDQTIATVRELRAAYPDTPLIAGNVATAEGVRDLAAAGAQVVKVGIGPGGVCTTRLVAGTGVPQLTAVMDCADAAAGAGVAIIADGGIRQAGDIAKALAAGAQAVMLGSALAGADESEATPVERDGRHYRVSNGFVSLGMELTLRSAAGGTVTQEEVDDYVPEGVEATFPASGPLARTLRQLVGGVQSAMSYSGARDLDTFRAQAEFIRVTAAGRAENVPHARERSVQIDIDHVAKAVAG

SMILES | HPLC and LC-MS product detection; product NMR (TubE) | LC-MS detection of IMP (TubD)
Nc1nc2[nH]cc(C(=O)O)c2c(=O)[nH]1 [CDG] | all of the data demonstrate that TubE functions as a CDG-specific phosphoribosyltransferase | 
NC(=O)C1=CN([C@@H]2O[C@H](COP(=O)(O)OP(=O)(O)OC[C@H]3O[C@@H](n4cnc5c(N)ncnc54)[C@H](OP(=O)(O)O)[C@@H]3O)[C@@H](O)[C@H]2O)C=CC1 [NADPH] |  | this cofactor could not replace NADPH to supply reducing equivalents for the TubD reaction
O=P(O)(O)OC[C@H]1O[C@H](OP(=O)(O)OP(=O)(O)O)[C@H](O)[C@@H]1O [PRPP] | HPLC profile of the TubE reaction using PRPP and CDG as substrates | 
